Experimental data as given in US20260042762A1 (Kymera Therapeutics, Inc., priority 2018, published 2026).

Molecular target: T1, MerTK (Homo sapiens, UniProt Q12866)
T1 construct: endogenous in cells; host or cells: Jurkat cells
T1 sequence (Q12866 21-999): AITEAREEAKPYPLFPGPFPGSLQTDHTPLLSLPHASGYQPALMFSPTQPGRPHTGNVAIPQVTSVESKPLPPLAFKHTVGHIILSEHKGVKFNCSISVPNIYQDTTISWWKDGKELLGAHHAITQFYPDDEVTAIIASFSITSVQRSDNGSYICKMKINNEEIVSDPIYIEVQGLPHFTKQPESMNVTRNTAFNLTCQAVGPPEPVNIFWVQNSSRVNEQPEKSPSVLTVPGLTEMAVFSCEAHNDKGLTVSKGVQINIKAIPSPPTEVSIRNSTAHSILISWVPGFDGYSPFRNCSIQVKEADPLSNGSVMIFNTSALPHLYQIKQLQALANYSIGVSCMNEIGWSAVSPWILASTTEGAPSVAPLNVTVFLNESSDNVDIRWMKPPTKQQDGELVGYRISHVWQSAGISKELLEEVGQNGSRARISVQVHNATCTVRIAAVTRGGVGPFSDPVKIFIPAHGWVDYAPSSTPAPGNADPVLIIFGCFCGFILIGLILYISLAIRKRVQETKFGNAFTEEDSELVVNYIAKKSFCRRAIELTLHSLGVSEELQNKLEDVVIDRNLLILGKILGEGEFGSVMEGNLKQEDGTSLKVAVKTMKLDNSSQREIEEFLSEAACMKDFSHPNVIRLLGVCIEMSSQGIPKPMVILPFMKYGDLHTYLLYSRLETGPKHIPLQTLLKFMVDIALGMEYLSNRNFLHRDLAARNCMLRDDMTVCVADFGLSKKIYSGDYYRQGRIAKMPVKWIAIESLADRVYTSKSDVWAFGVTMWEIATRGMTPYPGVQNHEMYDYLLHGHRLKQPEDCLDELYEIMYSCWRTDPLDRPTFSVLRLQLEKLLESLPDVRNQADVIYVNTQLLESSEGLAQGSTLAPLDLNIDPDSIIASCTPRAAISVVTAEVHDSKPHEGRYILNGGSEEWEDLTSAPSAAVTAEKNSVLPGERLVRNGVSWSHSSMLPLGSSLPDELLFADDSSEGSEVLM
Assay: MerTk degradation in Jurkat cells (Western blot)
Type: cell-based
Details: Jurkat, 4 h, 0.001-1 μM, 4 hour-incubation at 37° C., read-out: Jurkat Max % MerTK Degradation
Method in brief: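 Jurkat cells treated 4 h at 37 °C with compound at 0.001-1 μM final. RIPA lysates quantified by BCA, then MerTK probed by Western blot against actin loading control with IR-dye secondaries and Odyssey imaging.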

| Compound | Dmax [%] |
| --- | --- |
| Cn1c(=O)n([C@H]2CCC(=O)NC2=O)c2ccc(CCCOCCOCCN3CCN(C[C@H]4CC[C@H](c5cn([C@H]6CC[C@H](O)CC6)c6nc(NCCC(F)(F)F)ncc65)CC4)CC3)cc21 [I-154, 3-[3-methyl-2-oxo-5-(3-[2-[2-(4-[[(1r,4r)-4-[7-[trans-4-hydroxycyclohexyl]-2-[(3,3,3-trifluoropropyl)amino]pyrrolo[2,3-d]pyrimidin-5-y1]cyclohexyl]methyl]piperazin-1-y1)ethoxy]ethoxy]propyl)-1,3-benzodiazol-1-yl]piperidine-2,6-dione] | > 50 |
| Cn1c(=O)n([C@H]2CCC(=O)NC2=O)c2cccc(COCCN3CCN(Cc4ccc(-c5cn([C@H]6CC[C@H](O)CC6)c6nc(NCCC(F)(F)F)ncc56)cc4)CC3)c21 [I-152, 3-[3-methyl-2-oxo-4-[(2-[4-[(4-[7-[trans-4-hydroxycyclohexyl]-2-[(3,3,3-trifluoropropyl)amino]pyrrolo[2,3-d]pyrimidin-5-yl]phenyl)methyl]piperazin-1-yl]ethoxy)methyl]-1,3-benzodiazol-1-yl]piperidine-2,6-dione; bis(formic acid)] | > 50 |
| CCCNc1ncc2c(-c3ccc(CN4CCN(CCOCCCOCCCc5ccc6c(c5)n(C)c(=O)n6[C@H]5CCC(=O)NC5=O)CC4)cc3)cn([C@H]3CC[C@H](O)CC3)c2n1 [I-71, 3-[3-methyl-2-oxo-5-[3-(3-[2-[4-([4-[2-(propylamino)-7-[trans-4-hydroxycyclohexyl]-7H-pyrrolo[2,3-d]pyrimidin-5-yl]phenyl]methyl)piperazin-1-yl]ethoxy]propoxy)propy1]-2,3-dihydro-1H-1,3-benzodiazol-1-yl]piperidine-2,6-dione] | > 50 |
| CCCCNc1ncc2c(-c3ccc(CN4CCN(CCOCCOCCOCCOCCCc5ccc6c(c5)n(C)c(=O)n6[C@H]5CCC(=O)NC5=O)CC4)cc3)cn(C3CCCCC3)c2n1 [I-57, 3-(5-[1-[4-([4-[2-(butylamino)-7-cyclohexy1-7H-pyrrolo[2,3-d]pyrimidin-5-yl]phenyl]methyl)piperazin-1-yl]-3,6,9,12-tetraoxapentadecan-15-y1]-3-methyl-2-oxo-2,3-dihydro-1H-1,3-benzodiazol-1-y1)piperidine-2,6-dione] | > 50 |
| CCC[C@H](C)Nc1ncc2c(n1)n([C@H]1CC[C@H](O)CC1)cc2[C@H]1CC[C@@H](CN2CCN(C3CC(OCCc4ccc5c(c4)n(C)c(=O)n5C4CCC(=O)NC4=O)C3)CC2)CC1 (stereo partly drawn) [I-206, 3-(3-methyl-2-oxo-5-[2-[3-(4-[cis-4-[2-[(2S)-pentan-2-ylamino]-7-[trans-4-hydroxycyclohexyl]pyrrolo[2,3-d]pyrimidin-5-yl]cyclohexyl]methyl]piperazin-1-yl)cyclobutoxylethyl]-1,3-benzodiazol-1-y1)piperidine-2,6-dione] | > 50 |
| CCCCNc1ncc2c(-c3ccc(S(=O)(=O)N4CCN(CCOCCOCCOCCOCCNc5cccc6c5n(C)c(=O)n6C5CCC(=O)NC5=O)CC4)cc3)cn([C@H]3CC[C@H](O)CC3)c2n1 (relative stereo) [I-35, Trans-3-[4-[15-(4-[4-[2-(butylamino)-7-[-4-hydroxycyclohexyl]-7H-pyrrolo[2,3-d]pyrimidin-5-yl]benzenesulfonyl]piperazin-1-yl)-4,7,10,13-tetraoxa-1-azapentadecan-1-yl]-3-methyl-2-oxo-2,3-dihydro-1H-1,3-benzodiazol-1-yl]piperidine-2,6-dione] | > 50 |
| CCCCNc1ncc2c(-c3ccc(S(=O)(=O)N4CCN(CCOCCOCCOCCOCC(=O)N[C@H](C(=O)N5C[C@H](O)C[C@H]5C(=O)NCc5ccc(-c6scnc6C)cc5)C(C)(C)C)CC4)cc3)nn([C@H]3CC[C@H](O)CC3)c2n1 [I-33, (2S,4R)-1-((S)-2-(tert-butyl)-17-(4-((4-(6-(butylamino)-1-(trans-4-hydroxycyclohexyl)-1H-pyrazolo[3,4-d]pyrimidin-3-yl)phenyl)sulfonyl)piperazin-1-yl)-4-oxo-6,9,12,15-tetraoxa-3-azaheptadecanoyl)-4-hydroxy-N-(4-(4-methylthiazol-5-yl)benzyl)pyrrolidine-2-carboxamide] | > 50 |
| C[C@H](Nc1ncc2c(-c3ccc(CN4CCN(CCCOCCCc5ccc6c(c5)n(C)c(=O)n6C5CCC(=O)NC5=O)CC4)cc3)cn([C@H]3CC[C@H](O)CC3)c2n1)C(F)F (some centres unmarked) [I-216] | > 50 |
| CCCCNc1ncc2c(-c3ccc(CN4CCN(CCCOCCCc5ccc6c(c5)n(C)c(=O)n6[C@H]5CCC(=O)NC5=O)CC4)cc3)cn([C@H]3CC[C@H](O)CC3)c2n1 [I-69, 3-[5-(3-[3-[4-([4-[2-(butylamino)-7-[trans-4-hydroxycyclohexy1]-7H-pyrrolo[2,3-d]pyrimidin-5-yl]phenyl]methyl)piperazin-1-yl]propoxy]propyl)-3-methyl-2-oxo-2,3-dihydro-1H-1,3-benzodiazol-1-yl]piperidine-2,6-dione; bis(formic acid)] | > 50 |
| CCCCNc1ncc2c(-c3ccc(CN4CCN(CCOCCOCCOCCOCCCc5ccc6c(c5)n(C)c(=O)n6[C@H]5CCC(=O)NC5=O)CC4)nn3)cn([C@H]3CC[C@H](O)CC3)c2n1 [I-76, 3-(5-[1-[4-([6-[2-(butylamino)-7-[trans-4-hydroxycyclohexyl]-7H-pyrrolo[2,3-d]pyrimidin-5-y1]pyridazin-3-y1]methyl)piperazin-1-y1]-3,6,9,12-tetraoxapentadecan-15-y1]-3-methyl-2-oxo-2,3-dihydro-1H-1,3-benzodiazol-1-y1)piperidine-2,6-dione; formic acid] | > 50 |
| C[C@H](CC(F)(F)F)Nc1ncc2c(-c3ccc(CN4CCN(CCCOCCCc5ccc6c(c5)n(C)c(=O)n6C5CCC(=O)N(C)C5=O)CC4)cc3)cn([C@H]3CC[C@H](O)CC3)c2n1 (stereo partly drawn) [I-224, 1-methyl-3-[3-methyl-2-oxo-5-[3-(3-[4-[(4-[7-[trans-4-hydroxycyclohexy1]-2-[[(2R)-4,4,4-trifluorobutan-2-yl]amino]pyrrolo[2,3-d]pyrimidin-5-yl]phenyl)methyl]piperazin-1-yl]propoxy)propyl]-1,3-benzodiazol-1-yl]piperidine-2,6-dione] | < 20 |
| Cc1cc(CNCc2ccc(C(=O)N3CC(C4CCN(Cc5ccc(-c6cn([C@H]7CC[C@H](O)CC7)c7nc(NCCC(F)(F)F)ncc67)cc5)CC4)C3)cc2)ccc1-c1ccc2nn(CC3CC3)cc2c1 [I-191, trans-4-[5-[4-([4-[1-(4-[[([4-[2-(cyclopropylmethyl)indazol-5-yl]-3-methylphenyl]methyl)amino]methyl]benzoyl)azetidin-3-yl]piperidin-1-yl]methyl)phenyl]-2-[(3,3,3-trifluoropropyl)amino]pyrrolo[2,3-d]pyrimidin-7-yl]cyclohexan-1-ol] | < 20 |
| CCC[C@@H](C)Nc1ncc2c(-c3ccc(CN4CCN(CCCO[C@H]5CCN(Cc6ccc7c(c6)n(C)c(=O)n7C6CCC(=O)NC6=O)C5)CC4)cc3)cn([C@H]3CC[C@H](O)CC3)c2n1 (some centres unmarked) [I-176] | > 50 |
| O=C1CC[C@H](n2c3cccc(CCCOCCOCCN4CCN(Cc5ccc(-c6cn([C@H]7CC[C@H](O)CC7)c7nc(NCCC(F)(F)F)ncc67)cc5)CC4)c3c3cccnc32)C(=O)N1 [I-134, 3-(5-[3-[2-(2-[4-[(4-[7-[trans-4-hydroxycyclohexy1]-2-[(3,3,3-trifluoropropyl)amino]pyrrolo[2,3-d]pyrimidin-5-yl]phenyl)methyl]piperazin-1-yl]ethoxy)ethoxy]propyl]pyrido[2,3-b]indol-9-y1)piperidine-2,6-dione] | > 50 |
